In US6444681B1, “Methods and compositions for treating Raynaud's Phenomenon and scleroderma” (The Ohio State University Research Foundation, priority 2000, dated 2002):
Like-named read-outs stand apart in the source and are kept apart here.

How the values were obtained:
α-2A = biological target: T1, α-2A (Homo sapiens, UniProt P08913); conditions: cited from earlier work
T1 sequence (P08913 1-465): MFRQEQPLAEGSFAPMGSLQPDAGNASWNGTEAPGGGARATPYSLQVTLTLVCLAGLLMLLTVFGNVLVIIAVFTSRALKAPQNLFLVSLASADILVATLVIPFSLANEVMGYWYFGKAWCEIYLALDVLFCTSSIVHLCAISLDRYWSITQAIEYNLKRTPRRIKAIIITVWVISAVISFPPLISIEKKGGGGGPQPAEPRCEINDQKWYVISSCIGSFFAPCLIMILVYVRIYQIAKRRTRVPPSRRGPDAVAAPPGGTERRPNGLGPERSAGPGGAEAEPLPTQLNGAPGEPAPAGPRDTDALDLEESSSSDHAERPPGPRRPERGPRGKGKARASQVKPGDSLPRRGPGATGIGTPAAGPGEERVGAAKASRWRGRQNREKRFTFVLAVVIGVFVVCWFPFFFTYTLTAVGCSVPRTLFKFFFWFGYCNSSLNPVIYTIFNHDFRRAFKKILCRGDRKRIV

α-2B = biological target: T2, α-2B (Homo sapiens, UniProt P18089); conditions: cited from earlier work
T2 sequence (P18089 1-450): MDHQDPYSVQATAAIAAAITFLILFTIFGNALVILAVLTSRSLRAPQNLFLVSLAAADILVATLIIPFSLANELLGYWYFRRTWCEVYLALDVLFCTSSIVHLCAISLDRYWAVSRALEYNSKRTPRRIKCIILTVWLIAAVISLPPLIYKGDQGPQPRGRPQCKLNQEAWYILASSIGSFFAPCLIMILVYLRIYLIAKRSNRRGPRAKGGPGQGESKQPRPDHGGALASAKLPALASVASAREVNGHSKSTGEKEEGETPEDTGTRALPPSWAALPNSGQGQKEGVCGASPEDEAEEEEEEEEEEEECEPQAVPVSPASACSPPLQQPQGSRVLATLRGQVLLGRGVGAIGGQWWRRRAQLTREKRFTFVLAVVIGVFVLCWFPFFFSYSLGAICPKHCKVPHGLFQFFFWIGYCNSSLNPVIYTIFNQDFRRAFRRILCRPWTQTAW

Mouse Tail Artery = assay: Antagonism of UK 14,304-induced vasoconstriction in isolated pressurised distal mouse tail artery; type: cell-based; conditions: for −log KD: n=4; for Kd: versus UK 14,304, distal tail artery; for effect on vasoconstrictor response to UK 14,304: cold (28° C.), ARC 0239 50 nM, MK912 3×10^−10M; for effect on vasoconstrictor response to UK 14,304 / effect on vasoconstriction to the α2-AR agonist UK 14,304: BRL 44408 100 and 1000 nM; for effect on vasoconstriction to the α2-AR agonist UK 14,304: warm temperatures (37° C.), ARC 239 50 nM, MK 912 0.3 nM
Source text: Male mice (C57BL6) were euthanized by CO2 asphyxiation. Proximal and/or distal segments of tail artery were then rapidly removed and placed in cold Krebs-Ringer bicarbonate solution (in mM): 118.3 NaCl, 4.7 KCl, 1.2 MgSO4, 1.2 KH2PO4, 2.5 CaCl2, 25.0 NaHCO3, 11. glucose (control solution). The small arteries were cannulated at both ends with glass micropipettes, secured using 12-0 nylon monofilament suture and placed in a microvascuiar chamber (Living Systems, Burlington, Vt.). The arteries were maintained at a constant transmural pressure of 60 mmHg in the absence of flow. The chamber was superfused with control solution and maintained at 37° C., pH 7.4, and gassed with 16% O2-5% CO2-balance N2. The chamber was placed on the stage of an inverted microscope (X20, Nikon TMS-F, Japan) connected to a video camera (Panasonic, CCTV camera, Japan). The vessel image was projected onto a video monitor and the internal diameter continuously determined by a video dimension analyzer (Living Systems Instrumentation, Burlington Vt.) and monitored using a BIOPAC (Santa Barbara, Calif.) data acquisition system (Gateway Dimensions Pentium Computer).
Small arteries were allowed to equilibrate for 30-40 min at a transmural pressure (PTM) of 60 mmHg before addition of α1 and α2-AR agonists and antagonists. Concentration-effect curves to the selective α1-AR agonist, phenylephrine, or the selective α2-AR agonist, UK 14,304 (brimonidine, 5-bromo-N-(4,5-dihydro-1H-imidazol-2-yl)-6-quinoxalinamine) were generated by increasing the concentration of the agonists in half-log increments, once the constriction to the previous concentration had stabilized. Following completion of the concentration-effect curve, the influence of the agonists was terminated by repeatedly exchanging the buffer solution and allowing the artery to return to its stable baseline level.
To evaluate the effect of selective α2-AR antagonists on vasoconstriction, concentration-effect curves to UK 14,304 were determined under control conditions and in the presence of the selective α2A-AR antagonist, BRL 44408 (100 and 1000 nM), the selective α2B-AR antagonist ARC 0239 (50 nM) or the selective α2C-AR antagonist MK 912 (0.3 nM) (Table 1). When these receptor antagonists were used, the preparations were incubated for 30 min with the drugs prior to, and also during, exposure of the arteries to the agonists. When analyzing the influence of cold on α-AR responsiveness, the temperature of the superfusate was decreased to 28° C. for 30 min prior to commencing a concentration effect curve to the constrictor agonists. This provides sufficient time for the effect of cold on adrenergic reactivity to stabilize.
Vasomotor responses were expressed as a percentage change in internal diameter (ID) prior to administrating the agent. Because of the phasic behavior of the vasomotion in distal. tail arteries, the signal was electronically averaged (BIOPAC software, smoothing factor of 2000) in order to obtain diameter measurements. Functional data is expressed as means±SEM for n number of experiments, where n equals the number of animals from which blood vessels were studied. Antagonist dissociation constants (KD) were determined either from Arunlakshana and Schild plots or according to the formula: KD=[Ant]/(CR-1), where [Ant] is the concentration of antagonist, and CR the ratio of agonist-concentrations producing equal responses in the presence and absence of the antagonist. […] Statistical evaluation of the data was performed by Student's t-test for either paired or unpaired observations. When more than two means were compared, analysis of variance was used. If a significant F value was found, Scheffe's test for multiple comparisons was employed to identify differences among groups. Values were considered to be statistically different when P was less than 0.05.

α-2C = biological target: T3, α-2C (Homo sapiens, UniProt P18825); conditions: cited from earlier work
T3 sequence (P18825 1-462): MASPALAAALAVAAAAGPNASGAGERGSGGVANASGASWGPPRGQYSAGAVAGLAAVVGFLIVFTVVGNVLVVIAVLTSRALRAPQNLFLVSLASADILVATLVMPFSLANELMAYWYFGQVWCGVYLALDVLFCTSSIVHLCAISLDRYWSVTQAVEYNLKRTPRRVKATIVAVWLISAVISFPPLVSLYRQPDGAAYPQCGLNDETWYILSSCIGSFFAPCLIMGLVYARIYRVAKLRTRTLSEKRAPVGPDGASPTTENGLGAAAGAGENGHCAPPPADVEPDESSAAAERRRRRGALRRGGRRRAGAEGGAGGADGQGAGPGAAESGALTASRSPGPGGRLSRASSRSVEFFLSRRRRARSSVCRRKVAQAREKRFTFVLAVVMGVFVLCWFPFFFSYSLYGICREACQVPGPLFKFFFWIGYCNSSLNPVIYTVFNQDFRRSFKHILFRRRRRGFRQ

[1] = system: control and SSc arterioles; assay: Agonist-induced vasoconstriction in human dermal arterioles from control and SSc subjects; type: cell-based; conditions: for constriction: 1 μM of the agonist; for Emax: Homo sapiens
Source text: Skin biopsies (6 mm punch) were obtained from the same location on the medial aspect on the upper arm of patients and control subjects. Eleven patients with diffuse cutaneous SSc were studied: nine female and two male. Their average age was 49 years old (range 33 to 69) and they had SSc for an average of 4 years (range 1 to 9 years from first physician diagnosis of SSc). SSc patients were recruited from the Johns Hopkins and University of Maryland Scleroderma Center. All patients met the American College of Rheumatology criteria for a diagnosis of SSc. Biopsy of the skin was performed in the upper arm in an area considered to have normal skin thickness determined by clinical palpation (clinically-uninvolved skin). Patients with overlap syndromes (e.g. lupus) were excluded. Patient medications varied between individuals: anti-inflammatory /immunosuppressant, 4 patients on prednisone, 1 on methotrexate, 1 on cyclophosphamide, and 1 on D-penicillamine; gastrointestinal, 5 on omeprazole, 3 on cisapride, 2 on ranitidine, 1 on lansoprazole; angiotensin converting enzyme inhibitors, 3 on enalapril, 1 on lisinopril; angiotensin receptor antagonists, 1 on losartin, 1 on valsartin; calcium antagonists, 2 on nifedipine, 1 on verapamil, 1 on amlodipine, 1 on diltiazem; α1-adrenergic receptor antagonists, 1 on terazosin. Vasoconstrictor responses to the α1-adrenergic receptor (α1-AR) agonist, phenylephrine, were not included for the patient receiving terazosin. Eight normal subjects were analyzed: six female and two males with an average age of 50 years old (range 38 to 62). All patients and volunteers gave informed consent and the study was approved by the Johns Hopkins University human subjects IRB committee.
Arterioles were dissected from the deep dermal plexus of the biopsies and any side branches tied. […] The arterioles were cannulated with glass micropipettes and placed in a microvessel chamber as previously describe. The arterioles were maintained in no-flow state at a constant transmural pressure (PTM)of 40 mmHg. The chamber was superfused with buffer solution (37° C., pH 7.4, gassed with 16% O2-5% CO2-balance N2) and placed on stage of an inverted microscope for continuous monitoring of internal diameter using a video camera and video dimension analyzer.
Vasoconstriction was assessed in response to: i) KCl (15 to 60 mM), ii) the selective α1-AR agonist, phenylephrine (0.01 to 1 μM) (SIGMA, St Louis, Mo.), or iii) the selective α2-AR agonist, UK 14,304 (1 to 100 nM) (brimonidine, 5-bromo-N-(4,5-dihydro-1H-imidazol-2-yl)-6-quinoxalinamine, RBI, Natick, Mass.). Responses to UK 14,304 were also evaluated following denudation of the endothelium, achieved by carefully placing a wire (70μdiameter) through the vessel lumen. Endothelium-removal was confirmed by histology and by loss of response to the endothelial stimuli acetylcholine or bradykinin.
Responses were expressed as a percentage change in baseline diameter. Data is expressed as means±SEM for n number of experiments, where n equals the number of subjects from which blood vessels were studied. Concentration-effect curves were analyzed by comparing: i) maximal responses (vasoconstriction or dilatation), and ii) the area under the curve (AUC). Statistical evaluation of the data was performed using paired or unpaired t-tests. Responses were considered to be statistically different when P was less than 0.05.

mouse tail arteries = assay: Agonist-induced vasoconstriction in isolated mouse tail artery, with influence of cold; type: cell-based; conditions: for constriction of proximal and distal segments of mouse tail arteries: 10^−9 to 3×10^−7M, 37° C.; for influence of cold on the constrictor response to the agonist: distal segments, 28° C. versus 37° C.
Experimental: Small arteries were allowed to equilibrate for 30-40 min at a transmural pressure (PTM) of 60 mmHg before addition of α1 and α2-AR agonists and antagonists. […] Following completion of the concentration-effect curve, the influence of the agonists was terminated by repeatedly exchanging the buffer solution and allowing the artery to return to its stable baseline level.
Vasomotor responses were expressed as a percentage change in internal diameter (ID) prior to administrating the agent. Because of the phasic behavior of the vasomotion in distal. tail arteries, the signal was electronically averaged (BIOPAC software, smoothing factor of 2000) in order to obtain diameter measurements. Functional data is expressed as means±SEM for n number of experiments, where n equals the number of animals from which blood vessels were studied. Antagonist dissociation constants (KD) were determined either from Arunlakshana and Schild plots or according to the formula: KD=[Ant]/(CR-1), where [Ant] is the concentration of antagonist, and CR the ratio of agonist-concentrations producing equal responses in the presence and absence of the antagonist. […] Statistical evaluation of the data was performed by Student's t-test for either paired or unpaired observations. […]

[2] = 28° C. (cold), read-out: KD Mouse Tail Artery 28° C.
[3] = 37° C. (warm), read-out: KD Mouse Tail Artery 37° C.

Structure (SMILES)	Kd (α-2A) [nM]	Kd (α-2B) [nM]	−log KD (Mouse Tail Artery; 28° C. (cold))	Kd (Mouse Tail Artery; [2]) [nM]	effect on cold-induced amplification of the α2-AR response (Mouse Tail Artery; 28° C. versus 37° C., UK 14,304)	Kd (Mouse Tail Artery; [3]) [nM]	−log KD (Mouse Tail Artery; 37° C., Arunlakshana and Schild plot)	effect on vasoconstrictor response to UK 14,304 (Mouse Tail Artery)	effect on vasoconstriction to the α2-AR agonist UK 14,304 (Mouse Tail Artery)	Kd (α-2C) [nM]	expected shift in concentration-effect curves generated by α2B-AR stimulation (Mouse Tail Artery; based on the Table 1 KD, antagonist at 50 nM) [fold]	constriction ([1]; SSc arterioles) [%]	constriction ([1]; control arterioles) [%]	constriction of proximal and distal segments of mouse tail arteries (mouse tail arteries)	influence of cold on the constrictor response to the agonist (mouse tail arteries)	Emax ([1]; SSc arterioles with endothelium, 1-100 nM, read-out: maximal response to the agonist (constriction)) [%]	Emax ([1]; control arterioles with endothelium, 1-100 nM, read-out: maximal response to the agonist (constriction)) [%]	Emax ([1]; endothelium-denuded SSc arterioles, read-out: maximal response (constriction)) [%]	Emax ([1]; endothelium-denuded control arterioles, read-out: maximal response (constriction)) [%]
CC1c2ccccc2CN1CC1=NCCN1 (stereo not shown) [BRL 44408]	13	174	7.54 ± 0.10	29	did not reduce	20	7.69±0.13	reduced	inhibited	187	–	–	–	–	–	–	–	–	–
COc1ccccc1N1CCN(CCN2C(=O)c3ccccc3C(C)(C)C2=O)CC1 [ARC 239]	256	4.6	–	> 50	–	> 50	–	not inhibited	not inhibited	51	~10	–	–	–	–	–	–	–	–
CNC[C@H](O)c1cccc(O)c1 [phenylephrine]	–	–	–	–	–	–	–	–	–	–	–	45±7	45±8	caused concentration-dependent constriction	did not affect	–	–	–	–
Brc1c(NC2=NCCN2)ccc2nccnc12 [UK 14,304, 5-bromo-N-(4,5-dihydro-1H-imidazol-2-yl)-6-quinoxalinamine]	–	–	–	–	–	–	–	–	–	–	–	–	–	caused concentration-dependent constriction	dramatically and reversibly increased	67 ± 4	25 ± 5	67 ± 10	25 ± 7
